# Source: patent US20060073994A1, “Liquid detergent composition” (Conopco, Inc., d/b/a UNILEVER, priority 2004, published 2006)
# Tested on: Protease enzyme
# Experiment: Residual activity of protease enzyme in liquid detergent formulation with added perfume component after storage
# Type: biochemical
# Conditions: 0.06% by weight perfume component added to 'base' liquid formulation; 2 weeks storage at 37° C.; activity determined at 40° C. in TRIS pH 9 buffer, tetrapeptide substrate; relative to t=0
# Procedure: The following ‘base’ liquid detergent formulation was prepared: […]
# The residual activity of the protease enzyme in all thus-formed formulations after 2 weeks storage at 37° C., was determined at 40° C. in a TRIS pH 9 buffer and using tetrapeptide as substrate. For this determination, the following protocol was used: Samples of 70 mg of the tested liquid formulation were diluted in 10.00 ml MilliQ water. 10 μl of this solution was added to an assay of 205 μl containing 74.4 mM TRIS pH9 and 0.494 mM tetrapeptide (succinyl-Ala-Ala-Pro-Phe-p-Nitroanilide). The absorbance of the tested samples at a wavelength of […] was measured for 15 minutes at 40° C., using a spectrophotometer. The absolute changes in absorbance as compared to the absorbance measured on a freshly prepared calibration sample were correlated to the measured activity of such freshly prepared sample. The measured protease enzyme activity is expressed as GU/ml.
# The residual enzyme activity (expressed as %) is the enzyme activity after storage of the liquid formulation concerned divided by the enzyme activity measured at t=0.
row,Compound,Residual activity after 2 weeks [%]
1,C/C=C\C(=O)C1C(C)=CCCC1(C)C (stereo not drawn) [Alpha damascone],68
2,O=Cc1ccccc1 [Benzaldehyde],67
3,CC(=O)OCc1ccccc1 [Benzyl acetate],69
4,O=C/C=C/c1ccccc1 [Cinnamic aldehyde],58
5,CC(C)=CCCC(C)=CC=O [Citral],36
6,CC(C)=CCCC(C)CC=O (stereo not drawn) [Citronellal],62
7,CC1=CC(C)C(C=O)CC1 (stereo not drawn) [Cyclal C],45
8,CC1=CCC(C(C)C)=CC1 [Gamma terpinolene],54
9,CCCCCCC(C=O)=Cc1ccccc1 [Hexylcinnamic aldehyde],81
10,CC(=O)C1(C)CC2=C(CCCC2(C)C)CC1C (stereo not drawn) [Iso e super],75
11,CC(C=O)Cc1ccc(C(C)(C)C)cc1 (stereo not drawn) [Lilial],48
12,C=C(C)[C@H]1CC=C(C)CC1 [Limonene],60
13,COC(=O)c1ccccc1N [Methyl anthranilate],70
14,CCCCCCCC=O [Octanal],44
15,N#CC(=C1CCCCC1)c1ccccc1 [Peonile],73
16,CC(C)=CCCC1=CCC(C)(C=O)CC1 (stereo not drawn) [Precyclemone],74
17,CC(C)=C1CC[C@@H](C)CC1=O [Pulegone],58
18,CC(C)=CC1CC(C)CCO1 (stereo not drawn) [Rose oxide],60
19,CC1=CCC(=C(C)C)CC1 [Terpinolene],47
20,CCC(C)(O)CCCC(C)C (stereo not drawn) [Tetra hydrolinalool],65
21,CCCCCCCCCC/C=C/C=O [Tridecylenic aldehyde],45
22,CC(CC=O)c1ccccc1 (stereo not drawn) [Trifernal],74
23,COc1cc(C=O)ccc1O [Vanillin],43
24,Vertofix coeur,68
